Experimental data reported in patent US20110160266A1, “Novel Anti-Arrhythmia Agent” (THE UAB RESEARCH FOUNDATION, priority 2008, published 2011).
Values joined by “and” are separate entries in the source; they are usually repeats but may differ in a detail not shown here. Equal values may be shown once. Where a name gives a salt, the structure may show the parent alone. Marks after values point to notes of the source that are not given here. Blank lines part the entries; values can stand above or below the molecule they belong to.

Tests used:
[1] = test system: rat right atria; assay: Right atrial spontaneous contraction frequency
Experimental: (§1) Left atria (n=9) were paced at 0.1 Hz, treated with 300 nM BayK 8644 for 5 min, then with 20 μM 2-APB for 10 min, and the pacing stimulus was stopped. These preparations then were incubated with six increasing concentrations of zatebradine (10-100 μM) for 3-5 min at each concentration, and rates of SMA were recorded. Untreated right atria (n=9) also were titrated with zatebradine and its effect on contraction frequency was recorded.
(§2) To test whether zatebradine affects the SMA occurring in the presence of 2-APB and isoproterenol, left atria (n=7) were paced at 0.1 Hz, treated with 30 nM isoproterenol for 5 min, then with 20 μM 2-APB for 10 min, and the pacing stimulus was stopped. Rates of SMA were recorded, these left atria were exposed to 70 μM zatebradine for 10 min, and rates of SMA were recorded again. A group of right atria (n=7) also were exposed to 30 nM isoproterenol for 5 min and then to 70 μM zatebradine for 10 min. Right atrial contraction frequency was recorded at these two times.
(§3) To test whether ZD-7288, an If inhibitor structurally unrelated to zatebradine (Baruscotti et al., 2005; Sanders et al., 2006) affects the SMA occurring in the presence of 2-APB and BayK 8644, rat left atria (n=7) were treated with 300 nM BayK 8644 for 5 min, then with 20 μM 2-APB for 10 min, and the rates of ectopic activity were recorded. These atria then were incubated with six increasing concentrations of ZD-7288 (10-100 μM) for 3-5 min at each concentration, and the rates of SMA were recorded. Right atria (n=7) were titrated similarly with ZD-7288 (0-100 μM) and the change in their contraction frequency was recorded.

[2] = test system: rat left atria; assay: Suppression of STA induced by 2-APB plus BayK 8644 or isoproterenol in left atria
Experimental: 3 Hz-paced left atria (n=9 per group) were superfused (i) in Krebs-Henseleit alone or (ii) they were treated with 20 μM 2-APB for 10 min, (iii) with 300 nM BayK 8644 for 10 min and with 20 μM 2-APB for 10 min, or (iv) they were treated with 300 nM BayK 8644 and 20 μM 2-APB for 10 min, then with 70 μM zatebradine (3-[3-[[2-(3,4-Dimethoxyphenyl)ethyl]methyl amino]propyl]-1,3,4,5-tetrahydro-7,8,-dimethoxy-2H-3-benzazepin-2-one hydrochloride) for 10 min (Baruscotti et al., 2005). Pacing was interrupted at these times and rates of SMA were recorded.
as §1
To test whether zatebradine affects left atrial force of contraction, two groups of left atria (n=9 per group) were paced at 3 Hz and treated with 300 nM BayK 8644. Five minutes later one group was incubated with six increasing concentrations of zatebradine (10-100 μM) for 3-5 min at each concentration, and forces of contraction were recorded. A second group was treated with BayK 8644 but not zatebradine, and forces of contraction were recorded at corresponding times.
as §2, §3
In these experiments, a 2-APB model system was used to simulate tachycardic abnormal automaticity. Specifically, superfused left atria were treated sequentially with 300 nM BayK 8644, an activator of voltage-dependent calcium entry, which loads myocytes with calcium, and then with 2-APB (20 μM) to activate the putative myocyte system for abnormal automaticity. […] SKF-96365 (10 μM) was added to the superfusate. SKF-96365 reversed STA in these left atria within 2-3 min and the muscle became quiescent in the absence of pacing (FIG. 34, “Rest”).
Additional experiments determined the concentration-dependence of SKF-96365 inhibition of STA. These experiments were performed as described above except that various concentrations of SKF-96365 were added to the left atrial superfusate (about 10-70 μM). Exposing left atria to various concentrations of SKF-96365 reversed STA (FIG. 35).

[3] = test system: isolated rat left atria; assay: Pharmacological activation of spontaneous tachycardic activity (STA): calcium-loading agents with or without 2-APB
Experimental: Male Sprague-Dawley rats (325-400 g) were anesthetized with intra-peritoneal pentobarbital (0.1 g/kg). Their right and left atria were isolated, superfused at 30° C. in Krebs-Henseleit buffer, and nearly isometric forces of contraction were measured from these muscles (Wolkowicz et al., 2002). 2-APB was prepared as a 150 mM dimethyl sulfoxide stock.
Left atria (n=8 per group) were paced at 3 Hz and (i) titrated with 0 to 30 nM isoproterenol (Ahlquist, 1970) or (ii) exposed to 3 μM forskolin (Laurenza et al., 1980). Left atrial force and frequency of contraction, the time to peak tension and relaxation times were recorded after a 3-5 min exposure to forskolin or to any concentration of isoproterenol. The 3 Hz pacing stimulus was interrupted at the end of these protocols to measure SMA. […]
Left atrial contraction and relaxation times were recorded at these five times, the pacing stimulus was stopped and rates of SMA were recorded. […] Atrial mechanical function was measured at these four times; the pacing stimulus then was stopped and rates of SMA were recorded.
Left atria (n=6 per group) were paced at 3 Hz, titrated with 0 to 300 nM (−)BayK 8644 ([…]-1,4-Dihydro-2,6-dimethyl-5-nitro-4-[2-(trifluormethyl)phenyl]-3-pyridinecarboxylic acid methyl ester; Franckowiak et al. 1985) or FPL-64176 (2,5-Dimethyl-4-[2-(phenylmethyl)benzoyl]-1H-pyrrole-3-carboxlic acid methyl ester); Zheng et al., 1991) and their mechanical function and rates of SMA were recorded after a 5 min exposure to any concentration of slow calcium channel activator.
Atrial mechanical function was recorded at this time; the pacing stimulus then was stopped and rates of SMA were recorded. […]
Left atria (n=7) were paced at 3 Hz, treated with 120 μM ouabain (Illanes and Marshall, 1964), and any change in mechanical function was recorded at a new steady state, ˜10 min later. […]

[4] = test system: rat left atria
Experimental: The initial potentiated beat following prolonged rest (i.e., the PRP maximum force of contraction) reflects activator calcium available for SR release. The PRP response was used to obtain an indirect measure of left atrial SR calcium under our conditions.
Left atria (n=6) were superfused in KH, paced at 0.1 Hz, and subjected to PRP. Superfusion proceeded for another 35 min, and a second PRP was performed. These 2 forces were compared to assure the mechanical stability of our preparations.
One group (n=8) was superfused in KH, paced at 0.1 Hz, and their maximum force of contraction was measured.
A second group (n=8) was paced at 0.1 Hz in KH and subjected to PRP. They were exposed to 22 μM 2-APB and, after the appearance of SMA, were washed with KH containing 22 μM 2-APB and 82 mM sodium. Superfusion continued for 23 min and a second PRP was performed.
Control 0.1 Hz paced atria (n=8) were subjected to PRP and exposed to 400 μM DIDS, and a second PRP was performed 23 min later.
A group of atria (n=8) were paced at 0.1 Hz in KH and subjected to PRP. They were exposed to 22 μM 2-APB, 400 μM DIDS was added to the superfusate after the appearance of SMA, and a second PRP was performed 23 min later.

[5] = test system: isolated, superfused rat left atria
Experimental: Left atria were isolated from male Sprague-Dawley rats (325 to 400 g) under IP pentobarbital anesthesia (0.1 g/kg). Isolated left atria were superfused at 30° C. in Krebs-Henseleit (KH) buffer of the following mM composition: NaCl, 118; NaHCO3, 27; KCl, 4.8; MgSO4, 1.2; KH2PO4, 1.0; CaCl2, 1.8; and glucose, 11.1. Nearly isometric left atrial forces of contraction were measured as described.
Isolated superfused left atria were paced at 3 Hz. 2-APB was added to atrial superfusates from 0.015 or 0.15M DMSO stock solutions to achieve concentrations of 0, 2, 7.5, 15, or 22 μM (n=5 to 10 atria per concentration). Changes in atrial mechanical force were recorded during a subsequent 15 min superfusion.
Two groups of 5 to 6, 3 Hz paced atria were superfused in KH and exposed to 0 or 15 μM 2-APB for 10 min. The pacing stimulus was interrupted for 5 min and the number of spontaneous mechanical events (SMEs), defined as increases in mechanical force occurring in the absence of pacing, were measured as was the postrest potentiation response (PRP).
To determine whether diastolic interval affected the interaction between 2-APB and left atria, atrial pacing was decreased to 0.1 Hz, and 0, 7.5, or 22 μM 2-APB was added to the superfusate (n=6-8 per group). Superfusions continued for 15 min, and changes in atrial mechanical function were observed.
To establish whether SMA was reversible, atria (n=7) were paced at 0.1 Hz, exposed to 15 μM 2-APB for 10 min, and washed with KH. The effect of removing 2-APB on atrial mechanical function was recorded.

[6] = test system: right ventricular muscle strips and right ventricular papillary muscles; assay: Ventricular muscle model of SMA; set-up: species or system rats; settings: added to the superfusate in appropriate amounts; paced at 0.5 Hz
From the text: To further establish this model as a general test for arrhythmic and anti-arrhythmic agents, right ventricular muscle strips and right ventricular papillary muscles were isolated from anesthetized rats using methods known to persons skilled in the art. These muscles were then superfused as described above and paced at 0.5 Hz.

[7] = 2-APB values obtained during SMA, mean ± SEM

IC50 ([1]; Rattus norvegicus, untreated right atria titrated with zatebradine, read-out: IC50 for decrease of right atrial contraction frequency): 12 ± 1.1 µM
IC50 ([2]; Rattus norvegicus, intact left atria exposed to BayK 8644 and 2-APB, linear decrease): 58 ± 5 µM
SMILES: COc1ccc(CCN(C)CCCN2CCc3cc(OC)c(OC)cc3CC2=O)cc1OC [zatebradine, 3-[3-[[2-(3,4-Dimethoxyphenyl)ethyl]methylamino]propyl]-1,3,4,5-tetrahydro-7,8,-dimethoxy-2H-3-benzazepin-2-one hydrochloride]
right atrial contraction frequency ([1]; 30 nM isoproterenol, then 70 μM zatebradine for 10 min): 212±9.7 contractions/min
maximum decrease of right atrial contraction frequency ([1]; zatebradine titration): ~50%
effect on STA initiated by BayK 8644 and 2-APB ([2]; 300 nM BayK 8644 + 20 μM 2-APB, zatebradine 70 μM, ZD-7288 10-100 μM, SKF-96365 about 10-70 μM): significantly decreases
effect on left atrial force of contraction ([2]; 300 nM BayK 8644, 10-100 μM zatebradine): does not affect left atrial force of contraction
left atrial force of contraction, % of initial force ([2]; 3 Hz-paced, 300 nM BayK 8644, titrated with 10-100 μM zatebradine): 95±3.8 % of initial force
rate of appendage STA with zatebradine ([2]; isoproterenol + 2-APB + 70 μM zatebradine for 10 min): 110±24.5 contractions/min

SMILES: NCCOB(c1ccccc1)c1ccccc1 [2-APB, 2-aminoethoxydiphenyl borate]
rate of tachycardic response, Pre-washing ([3]; 300 nM BayK 8644 and 20 μM 2-APB): 224±12 contractions/min
rate of SMA/STA in the absence of pacing ([3]; 20 μM 2-APB alone or with 30 nM isoproterenol, 3 μM forskolin, 300 nM BayK 8644, 300 nM FPL-64176 or 120 μM ouabain): 47±6 contractions/min and ~50 contractions/min
T0.5R (time to 50% relaxation) ([3]; concentrations per footnote): 35.9 msc
T0.9R (time to 90% relaxation) ([3]; concentrations per footnote): 68.4 msc
TPT (time to peak tension) ([3]; concentrations per footnote): 57.5 msc
SMA Rate ([3]; spontaneous atrial mechanical events, concentrations per footnote): 47^‡ SMEs per minute
rate of tachycardic response, Post-washing ([3]; washed with superfusate containing slow calcium channel activator but no 2-APB, 5 min later): 0.7±0.4 contractions/min
maximum force of left atrial contraction vs values before the addition of 2-APB [4]: significantly decreased
reversibility of SMA on removing 2-APB from the superfusate ([5]; 0.1 Hz, 15 μM 2-APB, washed with KH, data not shown): restored regular atrial mechanical function
T0.5R (time to 50% relaxation) [5, 7]: 35 ± 0.8 ms
T0.9R (time to 90% relaxation) [5, 7]: 74 ± 0.8 ms
TPT (time to peak tension) [5, 7]: 59 ± 1.6 ms
2-APB concentration giving numerous SMEs during rest and a blunted post-rest response ([5]; 3 Hz paced, 2-APB 10 min, then 5 min rest): ≥ 15 µM
2-APB concentration giving intermittent SMEs ([5]; atria paced at 0.1 Hz): ≤ 10 µM
2-APB concentration giving repeated SMEs giving way to sustained SMA ([5]; atria paced at 0.1 Hz): > 15 µM
2-APB concentration producing sporadic/intermittent spontaneous mechanical events ([5]; left atria paced at 3 Hz, 5 to 10 min of exposure): > 10 µM and > 7.5 µM
induction of ventricular SMA [6]: ventricular SMA was observed

SMILES: c1ccc(B(OB(c2ccccc2)c2ccccc2)c2ccccc2)cc1 [DPBA, diphenyl boronic anhydride]
induction of ventricular SMA [6]: ventricular SMA was observed
